# Test results from patent publication USRE43712E1, “Methods for assaying for antidepressant therapy markers” (The Board of Trustees of the Uniersity of Illinois, priority 2000, dated 2012).
# Experiments:
# Type in all cases: cell-based
# Giα = assay: Detergent extraction of Giα from C6-2B glioma membranes; settings: C6-2B cells, 10 μM, 3 days; FIG. 4
# Description: Membrane proteins were extracted sequentially from C6-2B or rat synaptic membranes as described [Yan et al., J. Neurochem., 66:1489-1495; 1996]. These membranes were stirred on ice in HEPES (15 mM, pH 7.4) containing 1% Triton X-100 for 60 min followed by centrifugation at 100,000 g for 60 min at 4° C. The supernatant was reserved (Triton X-100 extract), and the resulting pellet was resuspended in Tris (15 mM, pH 7.4) containing 1.4% Triton X-114 and 150 mM NaCl. The solution was stirred for 60 min at 4° C. and centrifuged for 30 min at 100,000 g in the cold. The supernatant was saved (Triton X-114 extract). These supernatants and remaining pellet (remainder) were subjected to sodium dodecyl sulfate (SDS)-polyacrylamide gel electophoresis (PAGE) using 10% gels. […]
# Rat cortex membrane, C6-2B cell membranes, or Triton extracts of each membrane preparation were subjected to SDS-PAGE followed by electrotransfer to polyvinylidene difluoride (PVDF) membrane. […] Immunoreactivity was detected with an enhanced chemiluminescence (ECL) western blot detection system (Amersham) in accord with the manufacturer's instructions. The developed autoradiographs were analyzed by densitometry.
# Experiments were conducted (as described in Example 1) to ascertain the effect of antidepressant therapy on the mobility of Giα from C6-2B glioma cells. […] Immunoreactivity was detected with an ECL western blot detection system.
# adenylyl cyclase = assay: Adenylyl cyclase activity in sucrose density gradient fractions of Triton X-100-solubilized C6-2B cells; settings: 10 μM desipramine-treated C6-2B cells
# Description: C6-2B cells treated as described above were used to prepare Triton-insoluble, caveolin-enriched membrane fractions by the procedure of Li et al. [J. Biol. Chem., 270:15693-15701; 1995] with minor modifications. In brief, C6-2B cells were harvested into 0.75 ml of HEPES buffer (10 mM HEPES, pH 7.5, 150 mM NaCl, 1 mM DTT, 0.3 mM PMSF) containing 1% Triton X-100. Homogenization was carried out with 10 strokes of a Potter-Elvehjem homogenizer. The homogenate was adjusted to 40% sucrose by the addition of an equal volume of 80% sucrose prepared in HEPES buffer and placed at the bottom of an ultracentrifuge tube. A step gradient containing 30, 15, and 5% sucrose was formed above the homogenate and centrifuged at 50,000 rpm for 20 h in an SW65 rotor (240,000 g). Two or three opaque bands confined between the 15 and 30% sucrose layers were harvested, diluted threefold with HEPES buffer, and pelleted in a microcentrifuge at 16,000 g. The pellet was resuspended in HEPES buffer and identified as the Triton-insoluble fraction. The 40% sucrose region of the gradient was saved as the Triton-soluble fraction. In separate experiments, the same conditions were used, but instead of isolating the three opaque bands, 100-μl fractions were collected and assayed for Gs content and adenylyl cyclase activity.
# Adenylyl cyclase was assayed as described previously [Rasenick et al., Brain Res., 488:105-113; 1989]. […]
# Gsα = Gsα in Triton-insoluble, caveolin-enriched versus Triton-soluble fraction of C6-2B cells (sucrose density gradient, immunoblot); settings: chronic treatment, FIG. 3C
# Description: Rat cortex membrane, C6-2B cell membranes, or Triton extracts of each membrane preparation were subjected to SDS-PAGE followed by electrotransfer to polyvinylidene difluoride (PVDF) membrane. The PVDF membrane was incubated with a phosphate-buffered saline/Tween 20 Buffer (140 mM NaCl, […]. 0.1% Tween 20, pH 7.4) and 3% bovine serum albumin. The membrane was then incubated with polyclonal rabbit antisera against the various G protein subunits [RM (Gsα) or 116 (Gi1, Gi2, Gi3α)] at a 1:25,000 (RM) or 1:5,000 (116) dilution (see below for source of antibodies). […] Immunoreactivity was detected with an enhanced chemiluminescence (ECL) western blot detection system (Amersham) in accord with the manufacturer's instructions. The developed autoradiographs were analyzed by densitometry.
Compound,Migration of Giα to a less hydrophobic membrane fraction (Giα),Basal adenylyl cyclase activity (adenylyl cyclase; gradient fractions),"Forskolin-stimulated adenylyl cyclase activity compared with control (adenylyl cyclase; gradient fractions 11 and 12, 10^−4 M forskolin)","Decrease of the amount of Gsα in the caveolin-enriched Triton-insoluble fraction, normalized to equal caveolin (Gsα)"
"CNCCC(Oc1ccc(C(F)(F)F)cc1)c1ccccc1 (stereo not shown) [Fluoxetine, fluoxetine]",did not migrate to a less hydrophobic membrane fraction,,,
"CNCCCN1c2ccccc2CCc2ccccc21 [Desipramine, desipramine]",,unchanged,almost a twofold increase,~50%
